Experimental findings from ChEMBL document CHEMBL1201862, “PubChem BioAssay data set” (2004) are described below.

Broadly, the EC50 is the concentration that produces a half-maximal response. Broadly, the IC50 is the midpoint of a concentration-inhibition curve. One may read the AC50 as the midpoint of the concentration-response curve, whichever way the signal moves. In general, CC50 refers to the concentration at which the toxic effect on the cells reaches its halfway point.

Assay [1] concerns the target T1, Eukaryotic translation initiation factor 2-alpha kinase 3 (Homo sapiens, UniProt Q9NZJ5).
T1 sequence (Q9NZJ5 whole entry): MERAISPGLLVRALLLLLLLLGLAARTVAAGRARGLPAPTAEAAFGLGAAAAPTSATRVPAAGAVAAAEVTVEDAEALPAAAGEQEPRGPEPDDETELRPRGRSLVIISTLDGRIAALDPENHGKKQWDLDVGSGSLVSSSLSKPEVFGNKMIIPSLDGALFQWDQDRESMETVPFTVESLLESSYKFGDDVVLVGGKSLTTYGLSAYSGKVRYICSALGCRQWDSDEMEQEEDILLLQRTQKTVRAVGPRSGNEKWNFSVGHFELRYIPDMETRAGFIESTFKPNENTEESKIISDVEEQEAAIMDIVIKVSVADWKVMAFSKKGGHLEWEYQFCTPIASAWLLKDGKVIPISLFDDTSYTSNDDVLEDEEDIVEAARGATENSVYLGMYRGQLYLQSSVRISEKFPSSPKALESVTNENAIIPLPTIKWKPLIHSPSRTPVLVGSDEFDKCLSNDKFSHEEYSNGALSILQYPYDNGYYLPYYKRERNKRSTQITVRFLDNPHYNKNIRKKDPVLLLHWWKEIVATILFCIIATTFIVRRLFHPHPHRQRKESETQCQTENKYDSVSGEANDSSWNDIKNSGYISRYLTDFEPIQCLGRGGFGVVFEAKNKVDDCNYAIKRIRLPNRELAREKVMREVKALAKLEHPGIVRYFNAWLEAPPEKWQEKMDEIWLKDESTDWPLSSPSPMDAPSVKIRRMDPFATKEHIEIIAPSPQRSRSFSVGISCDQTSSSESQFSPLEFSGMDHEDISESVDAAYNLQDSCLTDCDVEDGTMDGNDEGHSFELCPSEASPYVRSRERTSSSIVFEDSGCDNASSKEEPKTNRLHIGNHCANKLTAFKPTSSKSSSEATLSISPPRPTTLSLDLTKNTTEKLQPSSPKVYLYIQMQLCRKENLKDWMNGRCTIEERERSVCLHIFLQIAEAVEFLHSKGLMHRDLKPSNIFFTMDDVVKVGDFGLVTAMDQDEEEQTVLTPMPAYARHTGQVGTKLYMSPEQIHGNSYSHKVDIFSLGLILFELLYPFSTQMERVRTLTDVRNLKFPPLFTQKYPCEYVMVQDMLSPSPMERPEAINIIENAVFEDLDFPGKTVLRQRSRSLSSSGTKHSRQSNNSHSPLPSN
As to the kind of experiment: Dose response cell-based high-throughput screening assay to measure PERK inhibition. [Related pubchem assays: 1416 ]. The format is functional.

The target in assay [2] is T1, Eukaryotic translation initiation factor 2-alpha kinase 3. Description: Counterscreen assay for PERK inhibitors: Dose response cell-based high throughput screening assay to measure inhibition of PERK at 6 hours. [Related pubchem assays: 1522, 1416 ]. The format is functional. In general terms: A counterscreen serves to expose hits that act by an unwanted route or on another target.

Assay [3] addresses T2, Protein skinhead-1 (Caenorhabditis elegans, UniProt P34707).
T2 sequence (P34707 whole entry): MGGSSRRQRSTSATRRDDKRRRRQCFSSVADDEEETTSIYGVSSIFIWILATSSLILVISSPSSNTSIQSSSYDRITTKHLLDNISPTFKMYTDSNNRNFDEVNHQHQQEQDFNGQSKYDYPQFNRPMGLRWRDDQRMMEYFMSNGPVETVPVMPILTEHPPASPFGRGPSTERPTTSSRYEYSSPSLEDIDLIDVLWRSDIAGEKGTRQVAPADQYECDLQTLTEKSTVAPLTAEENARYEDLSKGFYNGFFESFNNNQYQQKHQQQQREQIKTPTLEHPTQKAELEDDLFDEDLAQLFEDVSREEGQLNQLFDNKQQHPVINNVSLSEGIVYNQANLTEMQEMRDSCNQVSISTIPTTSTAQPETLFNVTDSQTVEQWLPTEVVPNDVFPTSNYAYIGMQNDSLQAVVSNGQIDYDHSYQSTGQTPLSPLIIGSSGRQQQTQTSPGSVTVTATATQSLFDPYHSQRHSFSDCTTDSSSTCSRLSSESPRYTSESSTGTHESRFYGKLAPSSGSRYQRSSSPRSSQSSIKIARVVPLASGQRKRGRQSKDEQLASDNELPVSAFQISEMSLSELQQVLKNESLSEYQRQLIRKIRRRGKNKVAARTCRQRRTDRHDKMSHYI
In kind it is functional.

For assay [4], the system named is HeLa. As to the kind of experiment: viability loss in HeLa cells – cell-based, 24 h, cherry-picked samples, cytotoxicity control, dose response (AID 504726).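 Note: potency for cytotoxicity as loss of luminescence signal.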 In kind it is functional. Particulars: Homo sapiens.
Assay [5] deals with Salmon testes DNA. As to the kind of experiment: acridine orange-DNA binding displacement – biochemical, fluorescence polarization, cherry-picked samples, set 2, artefact control for KSHV LANA DNA-binding inhibitor project, dose response (AID 504727). On the set-up: species or system Salmonidae. On the technique in general: In fluorescence polarisation assays a small probe gives low polarisation when free and higher when bound to something large.

Assay [6] concerns the target T3, ORF 73 (Human herpesvirus 8, UniProt O40947).
T3 sequence (O40947 whole entry): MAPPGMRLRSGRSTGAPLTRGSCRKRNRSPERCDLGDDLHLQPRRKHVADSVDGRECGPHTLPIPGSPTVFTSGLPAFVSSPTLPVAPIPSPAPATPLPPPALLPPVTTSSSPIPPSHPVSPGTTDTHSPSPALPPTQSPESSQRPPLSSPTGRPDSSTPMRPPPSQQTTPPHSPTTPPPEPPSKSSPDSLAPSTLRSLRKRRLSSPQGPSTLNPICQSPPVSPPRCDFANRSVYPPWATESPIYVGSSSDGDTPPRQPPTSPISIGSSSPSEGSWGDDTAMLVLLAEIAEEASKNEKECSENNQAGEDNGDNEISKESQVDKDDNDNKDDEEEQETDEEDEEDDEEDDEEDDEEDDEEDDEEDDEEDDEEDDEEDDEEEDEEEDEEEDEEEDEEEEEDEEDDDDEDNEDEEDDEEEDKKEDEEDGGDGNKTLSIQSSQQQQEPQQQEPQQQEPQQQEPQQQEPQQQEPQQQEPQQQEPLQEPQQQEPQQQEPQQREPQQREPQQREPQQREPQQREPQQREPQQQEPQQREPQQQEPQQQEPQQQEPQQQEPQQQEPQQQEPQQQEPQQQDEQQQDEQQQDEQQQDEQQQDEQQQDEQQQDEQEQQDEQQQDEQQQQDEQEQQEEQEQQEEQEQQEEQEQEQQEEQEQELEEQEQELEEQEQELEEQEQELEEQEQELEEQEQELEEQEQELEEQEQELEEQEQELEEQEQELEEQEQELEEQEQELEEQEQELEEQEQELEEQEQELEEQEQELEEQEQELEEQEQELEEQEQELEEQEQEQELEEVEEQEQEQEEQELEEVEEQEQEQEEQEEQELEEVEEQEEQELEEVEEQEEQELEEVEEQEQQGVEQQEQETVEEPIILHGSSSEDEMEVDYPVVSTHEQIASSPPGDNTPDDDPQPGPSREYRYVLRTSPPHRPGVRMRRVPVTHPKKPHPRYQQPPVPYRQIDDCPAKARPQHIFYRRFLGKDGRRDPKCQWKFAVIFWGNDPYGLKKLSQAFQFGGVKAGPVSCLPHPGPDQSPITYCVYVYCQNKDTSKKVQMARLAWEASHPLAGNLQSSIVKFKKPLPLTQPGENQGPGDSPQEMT
Description: KSHV LANA DNA-binding disruption – biochemical, fluorescence polarization, cherry-picked samples, dose response (AID 504725).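 Note: fluorescence polarization of a labeled DNA duplex reporting LANA DNA binding; potency is for inhibitors that block LANA binding to the DNA.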 Set-up: species or system Human gammaherpesvirus 8.

The target in assay [7] is T4, Endoribonuclease toxin MazF (Escherichia coli K-12, UniProt P0AE70).
T4 sequence (P0AE70 whole entry): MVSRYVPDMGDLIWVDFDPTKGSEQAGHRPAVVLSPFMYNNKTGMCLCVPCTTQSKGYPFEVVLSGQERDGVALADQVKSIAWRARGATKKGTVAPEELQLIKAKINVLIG
Description: activation of MazEF endoribonuclease cleavage – biochemical, fluorescence, single-stranded RNA substrate, uHTS hits, dose response (AID 588481). The format is functional.

Assay [8] addresses T4, Endoribonuclease toxin MazF. As to the kind of experiment: substrate-only fluorescence increase artefacts – biochemical, single-stranded RNase substrate, counter-screen for MazEF activator project, dose response (AID 588502). The format is functional.
The target of assay [9] is Photoreceptor-specific nuclear receptor (Homo sapiens, UniProt Q9Y5X4). In kind it is functional.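 Note: potency for compounds that break the NR2E3 corepressor complex and count as activators.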
Assay [10] addresses Peroxisome proliferator-activated receptor gamma/Nuclear receptor coactivator 1 (Homo sapiens, UniProt P37231). Description: TR-FRET dose response biochemical High Throughput Screening assay for agonists of the steroid receptor coactivator 1 (SRC-1) recruitment by the peroxisome proliferator-activated receptor gamma (PPAR gamma): non-selective agonists. [Related pubchem assays (depositor defined):AID1300, AID1808, AID504735, AID631]. In kind it is protein assay.

The target in assay [11] is Peroxisome proliferator-activated receptor gamma/Nuclear receptor coactivator 3 (Homo sapiens, UniProt P37231). Description: TR-FRET dose response biochemical High Throughput Screening assay for agonists of the steroid receptor coactivator 3 (SRC-3) recruitment by the peroxisome proliferator-activated receptor gamma (PPAR gamma): non-selective agonists. [Related pubchem assays: 1301 (Confirmation screen.), 1048 (Primary screen.)]. The format is functional. Background: Time-resolved FRET reads energy transfer from a long-lived donor to a nearby acceptor.

The target in assay [12] is Peroxisome proliferator-activated receptor gamma/Nuclear receptor coactivator 2 (Homo sapiens, UniProt P37231). Description: TR-FRET dose response biochemical High Throughput Screening assay for agonists of the steroid receptor coactivator 2 (SRC-2) recruitment by the peroxisome proliferator-activated receptor gamma (PPAR gamma): non-selective agonists. [Related pubchem assays: 1297, 1032 ]. In kind it is functional.

Assay [13] addresses Peroxisome proliferator-activated receptor gamma/Nuclear receptor corepressor 2 (Homo sapiens, UniProt P37231+Q9Y618). In kind it is functional.
The target in assay [14] is Lysosomal acid glucosylceramidase (Homo sapiens, UniProt P04062). As to the kind of experiment: Dose response cell-based high throughput screening assay to identify enhancers of beta-glucosidase activity. [Related pubchem assays: 784 ]. The format is functional.
Assay [15] in a line: Cytotoxicity screening for potential Inhibitors of Bacterial Capsule Biogenesis. [Related pubchem assays (depositor defined):AID488970]. In kind it is functional.
Assay [16] relates to INS1. Description: INS-1E survival protection against cytokine death – cell-based, luminescence, retest, dose response (AID 449756).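 Note: cell death triggered by IL-1 beta plus TNF-alpha plus IFN-gamma mixture; protective hits raise ATP signal compared with cytokine alone wells.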 As to conditions: Rattus norvegicus, INS1. In kind it is functional.

Activity calls are given as the source filed them.

Chain of Photoreceptor-specific nuclear receptor (Q9Y5X4 whole entry): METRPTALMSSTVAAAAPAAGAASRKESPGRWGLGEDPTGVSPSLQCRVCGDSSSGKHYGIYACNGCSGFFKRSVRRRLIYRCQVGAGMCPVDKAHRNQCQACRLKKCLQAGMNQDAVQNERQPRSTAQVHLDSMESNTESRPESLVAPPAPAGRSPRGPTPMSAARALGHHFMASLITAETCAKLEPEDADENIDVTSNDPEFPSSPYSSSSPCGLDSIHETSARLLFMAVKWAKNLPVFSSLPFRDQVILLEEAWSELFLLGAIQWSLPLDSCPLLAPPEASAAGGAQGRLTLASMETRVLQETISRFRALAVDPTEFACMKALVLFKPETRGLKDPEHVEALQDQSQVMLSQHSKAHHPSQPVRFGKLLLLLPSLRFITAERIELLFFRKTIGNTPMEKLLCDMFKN
Chain of Peroxisome proliferator-activated receptor gamma/Nuclear receptor coactivator 2 (P37231 whole entry): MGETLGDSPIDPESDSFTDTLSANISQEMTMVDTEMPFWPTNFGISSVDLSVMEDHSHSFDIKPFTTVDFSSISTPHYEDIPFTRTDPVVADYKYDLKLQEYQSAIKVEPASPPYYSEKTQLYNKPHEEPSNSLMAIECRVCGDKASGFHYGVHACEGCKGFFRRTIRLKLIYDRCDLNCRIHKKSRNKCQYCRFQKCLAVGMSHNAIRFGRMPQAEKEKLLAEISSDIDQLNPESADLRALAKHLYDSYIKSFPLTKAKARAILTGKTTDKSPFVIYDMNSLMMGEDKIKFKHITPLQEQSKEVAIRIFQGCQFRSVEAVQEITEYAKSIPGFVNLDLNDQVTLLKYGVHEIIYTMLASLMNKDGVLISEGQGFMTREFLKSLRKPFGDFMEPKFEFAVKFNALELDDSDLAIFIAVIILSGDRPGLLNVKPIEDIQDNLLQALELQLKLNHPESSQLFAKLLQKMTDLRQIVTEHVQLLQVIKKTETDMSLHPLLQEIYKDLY
Chain of Peroxisome proliferator-activated receptor gamma/Nuclear receptor coactivator 2 (Q15596 whole entry, further chain): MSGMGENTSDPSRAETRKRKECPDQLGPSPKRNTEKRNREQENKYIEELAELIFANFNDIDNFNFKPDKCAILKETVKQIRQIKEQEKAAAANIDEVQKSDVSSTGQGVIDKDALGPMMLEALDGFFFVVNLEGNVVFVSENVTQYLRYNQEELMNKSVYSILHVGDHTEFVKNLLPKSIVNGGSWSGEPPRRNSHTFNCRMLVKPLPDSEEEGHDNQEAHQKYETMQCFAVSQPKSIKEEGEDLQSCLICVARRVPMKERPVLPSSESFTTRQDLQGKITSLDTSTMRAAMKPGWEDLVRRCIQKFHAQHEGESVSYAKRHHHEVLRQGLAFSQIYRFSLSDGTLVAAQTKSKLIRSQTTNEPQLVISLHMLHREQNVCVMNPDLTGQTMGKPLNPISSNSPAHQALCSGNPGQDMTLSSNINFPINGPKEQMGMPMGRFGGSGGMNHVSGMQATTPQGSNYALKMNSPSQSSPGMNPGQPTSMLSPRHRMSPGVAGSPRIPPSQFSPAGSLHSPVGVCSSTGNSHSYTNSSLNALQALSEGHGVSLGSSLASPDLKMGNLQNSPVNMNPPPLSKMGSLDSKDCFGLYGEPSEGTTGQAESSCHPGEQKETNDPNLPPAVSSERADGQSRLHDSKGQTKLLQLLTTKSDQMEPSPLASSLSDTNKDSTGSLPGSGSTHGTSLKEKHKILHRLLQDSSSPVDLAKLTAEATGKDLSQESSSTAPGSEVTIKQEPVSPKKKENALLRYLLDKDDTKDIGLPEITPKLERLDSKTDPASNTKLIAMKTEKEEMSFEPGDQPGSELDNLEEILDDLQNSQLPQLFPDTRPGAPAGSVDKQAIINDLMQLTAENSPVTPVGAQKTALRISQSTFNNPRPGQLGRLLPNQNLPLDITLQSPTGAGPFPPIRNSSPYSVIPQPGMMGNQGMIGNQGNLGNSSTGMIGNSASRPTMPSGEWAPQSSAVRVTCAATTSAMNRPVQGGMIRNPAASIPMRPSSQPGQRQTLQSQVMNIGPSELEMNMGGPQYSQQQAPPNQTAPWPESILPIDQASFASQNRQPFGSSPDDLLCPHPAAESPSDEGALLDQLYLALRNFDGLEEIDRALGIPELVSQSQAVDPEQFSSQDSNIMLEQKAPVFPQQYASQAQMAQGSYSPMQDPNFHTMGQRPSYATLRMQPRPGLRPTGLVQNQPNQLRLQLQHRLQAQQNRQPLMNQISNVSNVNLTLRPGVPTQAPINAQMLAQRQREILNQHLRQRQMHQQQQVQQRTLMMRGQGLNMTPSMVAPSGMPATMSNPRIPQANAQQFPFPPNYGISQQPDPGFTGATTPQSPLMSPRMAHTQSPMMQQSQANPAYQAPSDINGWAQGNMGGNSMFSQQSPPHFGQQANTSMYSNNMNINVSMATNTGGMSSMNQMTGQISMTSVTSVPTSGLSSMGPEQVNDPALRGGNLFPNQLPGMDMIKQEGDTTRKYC
Chain of Peroxisome proliferator-activated receptor gamma/Nuclear receptor coactivator 3 (P37231 whole entry): as the sequence (P37231 whole entry) above
Chain of Peroxisome proliferator-activated receptor gamma/Nuclear receptor coactivator 3 (Q9Y6Q9 whole entry, further chain): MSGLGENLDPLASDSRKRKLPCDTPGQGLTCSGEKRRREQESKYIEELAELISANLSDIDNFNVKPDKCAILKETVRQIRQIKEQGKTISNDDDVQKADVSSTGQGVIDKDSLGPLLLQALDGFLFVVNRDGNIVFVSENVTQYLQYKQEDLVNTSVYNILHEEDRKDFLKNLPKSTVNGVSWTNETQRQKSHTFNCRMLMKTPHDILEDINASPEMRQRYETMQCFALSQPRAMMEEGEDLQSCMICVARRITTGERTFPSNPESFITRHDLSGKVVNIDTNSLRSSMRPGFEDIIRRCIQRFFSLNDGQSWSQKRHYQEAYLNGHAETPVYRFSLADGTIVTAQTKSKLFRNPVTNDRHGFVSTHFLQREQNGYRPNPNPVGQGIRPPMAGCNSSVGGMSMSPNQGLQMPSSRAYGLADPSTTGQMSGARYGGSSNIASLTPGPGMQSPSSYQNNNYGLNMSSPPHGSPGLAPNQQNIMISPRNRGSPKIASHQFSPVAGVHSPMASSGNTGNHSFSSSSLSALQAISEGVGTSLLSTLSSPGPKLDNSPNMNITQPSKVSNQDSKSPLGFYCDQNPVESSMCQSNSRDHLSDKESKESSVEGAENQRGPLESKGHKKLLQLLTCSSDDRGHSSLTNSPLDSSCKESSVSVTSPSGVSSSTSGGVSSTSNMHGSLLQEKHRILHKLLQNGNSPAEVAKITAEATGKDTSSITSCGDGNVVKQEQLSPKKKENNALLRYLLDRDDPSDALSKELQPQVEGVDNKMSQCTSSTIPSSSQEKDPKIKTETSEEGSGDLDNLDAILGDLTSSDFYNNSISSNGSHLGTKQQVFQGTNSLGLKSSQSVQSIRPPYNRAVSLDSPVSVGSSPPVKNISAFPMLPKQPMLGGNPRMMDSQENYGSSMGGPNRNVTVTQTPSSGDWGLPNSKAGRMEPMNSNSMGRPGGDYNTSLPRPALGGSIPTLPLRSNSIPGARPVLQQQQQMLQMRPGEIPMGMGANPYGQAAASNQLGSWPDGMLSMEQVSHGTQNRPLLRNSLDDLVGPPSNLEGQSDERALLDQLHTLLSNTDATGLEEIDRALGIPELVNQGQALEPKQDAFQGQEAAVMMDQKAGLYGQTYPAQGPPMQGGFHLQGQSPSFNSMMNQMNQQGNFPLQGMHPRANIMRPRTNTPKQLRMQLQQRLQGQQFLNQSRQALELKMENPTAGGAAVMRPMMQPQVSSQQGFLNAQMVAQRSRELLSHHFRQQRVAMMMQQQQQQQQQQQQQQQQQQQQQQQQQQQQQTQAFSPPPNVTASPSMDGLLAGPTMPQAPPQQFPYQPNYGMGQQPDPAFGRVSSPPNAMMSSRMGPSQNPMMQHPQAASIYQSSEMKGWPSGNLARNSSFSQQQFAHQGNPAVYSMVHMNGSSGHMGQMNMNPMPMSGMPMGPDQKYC
Chain of Lysosomal acid glucosylceramidase (P04062 whole entry): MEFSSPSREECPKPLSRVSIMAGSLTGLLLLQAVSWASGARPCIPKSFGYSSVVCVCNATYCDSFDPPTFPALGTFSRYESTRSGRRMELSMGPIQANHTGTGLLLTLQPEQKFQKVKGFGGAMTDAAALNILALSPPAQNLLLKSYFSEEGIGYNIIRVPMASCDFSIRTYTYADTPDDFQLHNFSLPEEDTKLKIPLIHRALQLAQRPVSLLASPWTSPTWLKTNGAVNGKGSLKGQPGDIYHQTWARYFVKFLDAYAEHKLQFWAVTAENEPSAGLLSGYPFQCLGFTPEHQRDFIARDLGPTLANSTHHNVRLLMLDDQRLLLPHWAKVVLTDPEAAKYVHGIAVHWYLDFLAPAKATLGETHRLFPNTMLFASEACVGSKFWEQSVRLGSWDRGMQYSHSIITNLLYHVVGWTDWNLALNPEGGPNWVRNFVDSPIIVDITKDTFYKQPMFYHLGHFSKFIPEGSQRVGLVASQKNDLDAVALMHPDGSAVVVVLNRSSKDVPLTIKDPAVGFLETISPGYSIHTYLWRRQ

Turning to `CCOc1cc(C(N)=O)cc(Br)c1OC`, the EC50 in [1] and in assay [2] was > 55.7 µM (not active) in each case. The IC50 in assay [3] was > 100 µM (inactive).

As for `COc1ccc2c(c1)c1nc3ccccc3nc1n2CC(=O)OC(C)C`, the AC50 is 216 µM (active) in assay [4], 134 µM (active) in [5] and 77 µM (active) in assay [6]. Moreover, the EC50 is > 99 µM (inactive) in assay [7] and 19.6 µM (active) in [8].

For the compound `COC(=O)c1cc(Br)c(=O)n(-c2nccs2)c1`, the IC50 is > 39.8 µM (not active) in assay [9] and 6.29 µM (active) in [13]. Also, the figures for the EC50 in assay [10], in assay [11] and in [12] were > 79.4 µM (inactive), > 79.4 µM (not active) and > 79.4 µM (not active), respectively.

Regarding `CC(=O)N1C(C(=O)O)CSC1c1cccc(C)c1` (stereo unspecified), the half-maximal effective concentration (EC50) in assay [14] is > 50 µM (not active).

As for `O=C(N/N=C/c1ccc(O)cc1O)c1ccc(NC(=O)C2CCCCC2)cc1`, the CC50 in [15] is 8.95 µM (active). The AC50 in assay [16] is 4.01 µM (active).
